Measurements: US12122811B2, “BDNF mimetic peptide amphiphiles” (Northwestern University, priority 2018, dated 2024)
Positions of bridges follow the written chain, without caps; N, C: chain ends. Non-standard residues stand in square brackets, D forms with d. Residues, ends and D or L forms follow the SMILES beside them. Chains are numbered I, II in the order given. *: point of attachment. PEG6 = NCCOCCOCCOCCOCCOCCOCCC(=O)O; Palmitoyl = CCCCCCCCCCCCCCCC(=O)*

B1: BDNF protein: Human/Murine/Rat BDNF protein (Peprotech) (protein, UniProt P23560 19-247, looked up)
Neurotrophic factor BDNF …: APMKEANIRGQGGLAYPGVRTHGTLESVNGPKAGSRGLTSLADTFEHVIEELLDEDQKVRPNEENNKDADLYTSRVMLSSQVPLEPPLLFLLEEYKNYLDAANMSMRVRRHSDPARRGELSVCDSISEWVTAADKKTAVDMSGGTVTVLEKVPVSKGQLKQYFYETKCNPMGYTKEGCRGIDKRHWNSQCRTTQSYVRALTMDSKKRIGWRFIRIDTSCVCTLTIKRGR

Columns and labels:
[1] = test system: primary mouse cortical neurons; experiment: Morphometric analysis of neurites (MAP2, SMI312 immunocytochemistry); type: cell-based; conditions: 24 h
Experimental: For morphometric analysis and cell viability assays, cells were cultured in 24 or 48 well plates at a density of 25,000 or 40,000 cells/well respectively, for three days before being treated. Cells were then treated for 24 hours, 3 days or 7 DIV. Samples were fixed in 4% PFA for 15 min (20 min for gels) at room temperature (RT) for immunofluorescence studies.
Immunofluorescence. For immunofluorescence, fixed samples (4% PFA for 15 min at RT) were incubated with primary antibodies overnight and Alexa 488 or Alexa 555 secondary antibodies (1:2000, Invitrogen) were used for 2 h at room temperature. The following primary antibodies were used: mouse anti-Tuj-1 (neuronal marker 1:4000, BioLegend), rabbit anti-Tuj-1 (neuronal marker, 1:4000, BioLegend) rabbit anti-MAP2 (marker for mature neurons 1:2000, BioLegend), mouse anti-SMI312 (axonal filament marker 1:1000, BioLegend), rabbit anti-Synaptophysin (marker for synaptic vesicles, 1:1000, Abcam) and DAPI (nuclear stain, 1:2000, Invitrogen). If not already in a glass bottom plate (MatTek), the preparations were mounted with Immu-Mount (Thermo Scientific) for imaging.
Imaging and Morphometric Analysis. Throughout the experiments, a digital camera (Nikon) mounted on a tissue culture microscope was used to take bright field images of cells. Nikon A1R confocal laser-scanning microscope with GaAsP detectors was used to visualize and image fluorescent preparations. Images were processed using an ImageJ (National Institutes of Health) plugin. Confocal images were reconstructed by NIS Elements Advanced Research Microscope Imaging software (version 4.20) or Imaris program (version 8.1, Bitplane Scientific software) for 3D interactive data viewing with normal or shadow projections of cells screened under Nikon A1R confocal laser-scanning microscope with GaAsP detectors.
For morphometric analysis, NeuronJ was used to trace and measure neuronal extensions.^4 For quantification of number of primary neurites and neurite length, a minimum of 60 randomly selected cells were analyzed with a minimum of 2 independent batches of culture for each condition. The images were arranged in Adobe Photoshop (v.7.0), with adjustments for contrast, brightness and color balance to obtain optimal visual reproduction of data.

MAPK pathway (pErk 1/2) = experiment: MAPK pathway activation, western blot of phosphorylated Erk (pErk 1/2); type: cell-based, mouse; conditions: 6 h of treatment, vs control conditions
Experimental: For western blot, cells were cultured in 6 well plates at a density of approximately 900,000 cells/well for 14 DIV before being treated. Treatments were added for 2, 4, 6, 8, 12 or 24 h in vitro before protein was harvested. For TrkB inhibitor studies, cells were cultured for 14 DIV and then treated with a TrkB specific inhibitor, K-252a (Sigma Aldrich), for 1 hour prior to being treated with the different conditions mentioned above. Protein was extracted after six hours of treatment.
Western Blot. Protein was extracted from primary neuronal cultures with Halt Protease and Phosphatase Inhibitor Cocktail (Thermo Scientific) and a BCA assay (Thermo Scientific) was performed to determine protein content of each sample. Cell protein was loaded into and separated using a 4-20% SDS-PAGE gel (Bio-Rad). It was then electrotransferred from the gel to a nitrocellulose membrane (Bio-Rad). The membranes were blocked with 5% milk solution (Bio-Rad) for 30 minutes followed by an overnight incubation with primary antibodies at 4° C. […] Protein signals were detected using Radiance Bioluminescent ECL substrate (Azure Biosystems). Densitometry analysis, standardized to total receptor content or Actin as a control for protein loading, was performed using ImageJ software.^3 For quantification, triplicate samples were analyzed and at least two different experiments were conducted.

cortical neurons = experiment: Infiltration and maturation of cortical neurons on 3D PA gel scaffolds; type: cell-based, mouse; conditions: neurons on gels, one week
Experimental: Gels were made using annealed PAs prepared with methods described herein 1. BDNF native protein or BDNF peptide were incorporated by mixing at 10 nM or 0.5 uM respectively, with E2 Filler PA gel at 1 wt % while it was in its liquid state. Silicon isolators with adhesive (Invitrogen) were placed on PDL coated glass coverslips. 70 μL of PA liquid was pipetted into the circular silicon well and a Transwell insert was placed flush with the top of the well of the silicon insert. This step ensured a flat, even thickness for all gels. Gelling solution comprised of 125 mM NaCl, 3 mM KCl, and 25 mM CaCl2 was pipetted into the Transwell insert and allowed to slowly soak down into the material from the top. The insert prevented the gel from swelling more than the thickness of the silicon isolator. All gels were incubated at 37° C. for 5 min before removing the Transwell insert.
Infiltration Study. Gels were prepared as described in 2.1.2. Gels were then rinsed with media one time before cells were seeded on top at a density of approximately 42,000 cells/well. Cells were cultured for one week in vitro. Half of the gels were analyzed by patch clamp analysis (see section 3.4.9. Other gels were fixed with 4% PFA to perform infiltration studies. Cell were stained for MAP2, TUJ-1 and DAPI using immunocytochemistry methods described previously. Confocal microscopy was used to make z-stack reconstructions of each gel. The MultiMeasure function in the ROI manager of ImageJ was used to measure the depth of pixels for each channel which was then plotted as intensity vs depth in the gel. The average intensity of MAP2 was measured by averaging the mean intensities obtained from maximum intensity projections of z-stacks images of gels.

Molecule	neurite number, BDNF PA versus native BDNF protein [1]	number of primary neurites ([1]; vs control conditions)	number of secondary neurites ([1]; vs control conditions)	total dendrite and axon length ([1]; vs native BDNF protein and control conditions)	activation of the MAPK pathway (pErk 1/2) (MAPK pathway (pErk 1/2))	distance that neurites infiltrated from the top of the scaffold (cortical neurons) [μm]	infiltration distance relative to all the other conditions (cortical neurons)	normalized average of MAP2 intensity (cortical neurons)
CCCCCCCCCCCCCCCC(=O)N[C@H](C(=O)N[C@H](C(=O)N[C@@H](C)C(=O)N[C@@H](C)C(=O)N[C@@H](CCC(=O)O)C(=O)N[C@@H](CCC(=O)O)C(=O)N[C@@H](CCC(=O)O)C(=O)N[C@@H](CCC(=O)O)C(=O)NCCOCCOCCOCCOCCOCCOCCC(=O)NCCCC[C@@H]1NC(=O)[C@H]2CCCN2C(=O)[C@H](CCCNC(=N)N)NC(=O)[C@H](CCCCN)NC(=O)[C@H](CCCCN)NC1=O)C(C)C)C(C)C [BDNF PA, RKK(aK)(dP)-(PEG6 Spacer)-EEEEAAVV-C16 (SEQ ID NO: 5)] (I: Palmitoyl-VVAAEEEE[PEG6] / II: cyclo(KKKR[dP]); amide I:C-II:1)	no statistical differences	positive tendency	significant increase	significant increase	marked increase in activation	179.7±6.0	nearly four-and-a-half times higher	0.64±0.15
B1					marked increase in activation			
